US20060110474A1, “Rubrofusarin glycoside-containing composition” (Suntory Limited, priority 2002, published 2006)
“Also recorded” adds a separate entry of the source.

Assays:
Type in all cases: cell-based
[1] = test system: human hepatoma HepG2 cells; assay: Synergistic effect with precursor L-cystine on intracellular glutathione level (L-cystine free D-MEM); settings: 40 hours, FIG. 4
Method: (§1) The activity to increase intracellular glutathione level was determined by use of human hepatoma HepG2 cells. More specifically, HepG2 cells were cultured in RPMI1640 medium and added to a 96-well microplate at a density of 2.5×10^4 cells (100 μl) per well. After the HepG2 cells settled on the wall, 25 μl of each of the aforementioned samples was added and the mixture was cultured in a CO2 incubator for 48 hours. Thereafter, a culture solution was removed and the cells were washed once with phosphate buffered saline (PBS), 25 μl of a PBS solution containing 0.25 mM monochlorobimane was added and the mixture was allowed to stand in the CO2 incubator (37° C.) for 45 minutes. After the mixture was returned to room temperature, 75 μl of distilled water was added to the mixture to disperse it. The fluorescent intensity of the fluorescent substance produced by the reaction between Monochlorobimane and glutathione was measured at 355 nm/460 nm to observe a change in intracellular glutathione content.
Using human hepatoma HepG2 cells, the synergistic effect between rubrofusarin glycoside having the intracellular glutathione increasing activity and a precursor for synthesizing glutathione in vivo was investigated. […] Thereafter, intracellular glutathione levels were measured. […]

[2] = test system: human hepatoma HepG2 cells; assay: Intracellular glutathione level of HepG2 cells (monochlorobimane fluorescence)
Method: as §1
(§2) Using human hepatoma HepG2 cells, time-dependent induction effect of rubrofusarin glycoside upon intracellular glutathione level was investigated. The procedure was similar to that of Example 1. Briefly, HepG2 cells were dispensed at a density of 2.5×10^4 cells (100 μl) per well of a microplate and allowed to settle thereto, and then, 25 μl of an evaluation sample diluted to a predetermined concentration in RPMI1640 medium was added. The cells were cultured for 0, 6, 12, 24, and 48 hours. […]
(§3) Using human hepatoma HepG2 cells, dose dependency of the effect of rubrofusarin glycoside upon intracellular glutathione level was investigated. […] After culturing for an additional 48 hours, the intracellular glutathione level was measured to be compared with that of the cells containing no test-compound or that of the cells containing comparative compound, β-naphthoflavone (purchased from Nacalai-tesque) or silibinin (purchased from Sigma Chemical). […]

[3] = test system: human hepatoma HepG2 cells; assay: Protective effect against t-butyl hydroperoxide (rate of surviving cells, WST-1 staining); settings: HepG2, 10 μM in terms of rubrofusarin gentiobioside for 48 hours, then t-BHP 0 to 1 mM for 3 hours; β-naphthoflavone 6 μM; FIG. 3
Method: The method was similar to that in Example 5. Briefly, HepG2 cells were dispensed at a density of 2.5×10^4 cells (100 μl) per well of a microplate and allowed to settle thereto, and then, 25 μl of the concentrate diluted in RPMI1640 medium to a final concentration of 10 μM in terms of rubrofusarin gentiobioside was added. After culturing was performed for a further 48 hours, a peroxide, t-butyl hydroperoxide (t-BHP) was added so as to give a final concentration of 0 to 1 mM. The rate of surviving cells after 3 hours relative to that of the cells containing no test compound was compared with those containing comparative compounds, β-naphthoflavone (6 μM) and silibinin (10 μM). The rate of surviving cells was checked by WST-1 staining and calculated based on a control not containing t-BHP as being 100%.

[4] = test system: human hepatoma HepG2 cells; assay: Cytotoxicity seen in the in-vitro HepG2 cell evaluation system; settings: HepG2, 48 hours, up to 20 μM, compared with β-naphthoflavone
Method: as §2, with “hours. As the evaluation sample, use was made of the concentrate (containing 10.2% (w/w) rubrofusarin gentiobioside) of the present invention prepared in accordance with the method shown in Example 4.” for “hours.”
as §3

Structure (SMILES)	intracellular glutathione level with L-cystine alone ([1]; L-cystine at predetermined concentrations)	intracellular glutathione level in co-existence of L-cystine ([1]; 10 μM rubrofusarin glycoside plus L-cystine)	activity to increase intracellular glutathione level (HPLC fraction) ([2]; HepG2, 48 hours culture, serial two-fold dilution, 4 dilution stages)	glutathione increasing activity, dose dependency ([2]; HepG2, 48 hours, final concentration 0 to 20 μM in terms of rubrofusarin gentiobioside, FIG. 2)	intracellular glutathione level, time course ([2]; HepG2, 0, 6, 12, 24, 48 hours, 1.25, 2.5, 5.0 μM in terms of rubrofusarin gentiobioside, relative to negative control = 100%, FIG. 1)	protective effect against t-BHP (rate of surviving cells) [3]	cytotoxicity in a high-concentration range [4]
N[C@@H](CSSC[C@H](N)C(=O)O)C(=O)O [L-cystine]	increased as the concentration of L-cystine added increased						
COc1cc(O[C@@H]2O[C@H](CO[C@@H]3O[C@H](CO)[C@@H](O)[C@H](O)[C@H]3O)[C@@H](O)[C@H](O)[C@H]2O)c2c(O)c3c(=O)cc(C)oc3cc2c1 [rubrofusarin glycoside, rubrofusarin 6-O-β-gentiobioside]		synergistically contribute to an increase; also recorded: acted synergistically	dose dependent and strong	increases in a dose-dependent manner; also recorded: equivalent to that of β-naphthoflavone	increases in a time-dependent manner	protecting HepG2 cells; also recorded: somewhat lower than that of β-naphthoflavone	lower
